Among the data in US9409908B2 (priority 2012, dated 2016) are Ki values, retold here.

Assay [1] concerns the target purified human plasma kallikrein (Homo sapiens (Human), UniProt P03952). Kind of assay: biochemical. It counts as biochemical. Particulars: read-out: Plasma Kallikrein Ki.
Assay [2] deals with purified human Factor XIa (Homo sapiens (Human), UniProt P03951). Nature of the assay: biochemical. Particulars: read-out: Factor XIa Ki. It counts as biochemical.

Counter-ions that a name gives are not always drawn.

Chain of purified human Factor XIa (P03951 whole entry, looked up): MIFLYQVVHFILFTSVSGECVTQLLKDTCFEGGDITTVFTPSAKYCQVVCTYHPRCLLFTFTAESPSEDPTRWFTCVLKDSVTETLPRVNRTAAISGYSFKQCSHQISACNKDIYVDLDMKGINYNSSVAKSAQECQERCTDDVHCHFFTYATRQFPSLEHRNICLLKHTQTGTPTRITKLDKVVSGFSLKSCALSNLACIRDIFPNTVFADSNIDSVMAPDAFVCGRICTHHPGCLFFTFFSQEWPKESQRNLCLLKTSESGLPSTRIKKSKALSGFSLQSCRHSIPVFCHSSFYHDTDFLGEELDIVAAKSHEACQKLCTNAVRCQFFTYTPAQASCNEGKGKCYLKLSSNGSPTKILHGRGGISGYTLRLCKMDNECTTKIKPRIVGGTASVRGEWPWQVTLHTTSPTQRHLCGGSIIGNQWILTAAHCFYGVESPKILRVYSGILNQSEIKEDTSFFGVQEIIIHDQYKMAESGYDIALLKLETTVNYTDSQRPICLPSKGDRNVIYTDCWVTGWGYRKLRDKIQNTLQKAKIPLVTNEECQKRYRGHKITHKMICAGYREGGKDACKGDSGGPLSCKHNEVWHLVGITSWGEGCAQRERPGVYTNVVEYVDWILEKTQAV
Chain of purified human Factor XIa (P03951 whole entry partner, looked up): as the sequence (P03951 whole entry, looked up) above
Chain of purified human plasma kallikrein (P03952 whole entry, looked up): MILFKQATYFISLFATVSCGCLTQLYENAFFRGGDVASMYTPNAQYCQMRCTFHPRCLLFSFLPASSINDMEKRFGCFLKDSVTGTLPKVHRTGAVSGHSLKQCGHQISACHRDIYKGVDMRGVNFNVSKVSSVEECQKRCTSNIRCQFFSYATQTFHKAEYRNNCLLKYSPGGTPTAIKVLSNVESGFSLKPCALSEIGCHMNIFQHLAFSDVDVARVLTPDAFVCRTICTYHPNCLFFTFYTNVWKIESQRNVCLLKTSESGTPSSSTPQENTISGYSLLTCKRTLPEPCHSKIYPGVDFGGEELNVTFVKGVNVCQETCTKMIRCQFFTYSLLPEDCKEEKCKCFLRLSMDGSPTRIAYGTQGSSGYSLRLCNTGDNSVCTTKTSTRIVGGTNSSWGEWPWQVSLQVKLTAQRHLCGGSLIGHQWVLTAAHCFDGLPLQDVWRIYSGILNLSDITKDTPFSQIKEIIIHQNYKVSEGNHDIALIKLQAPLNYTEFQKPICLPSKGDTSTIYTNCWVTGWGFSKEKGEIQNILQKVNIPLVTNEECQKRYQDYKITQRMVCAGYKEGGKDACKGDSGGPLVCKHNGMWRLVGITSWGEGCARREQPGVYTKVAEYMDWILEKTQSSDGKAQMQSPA
Chain of purified human plasma kallikrein (P03952 whole entry partner, looked up): as the sequence (P03952 whole entry, looked up) above

With `C[C@@H]1CCC[C@H](N2CCC(c3c(F)ccc(Cl)c3F)=CC2=O)c2cc(ccn2)-c2ccc(NC3O[C@H](CO)[C@@H](O)[C@H](O)[C@@H]3O)cc2NC1=O` (stereo partly drawn) [Example 125, (10R,14S)-14-[4-(3-chloro-2,6-difluorophenyl)-6-oxo-1,2,3,6-tetrahydropyridin-1-yl]-10-methyl-5-{[(3S,4S,5S,6R)-3,4,5-trihydroxy-6-(hydroxymethyl)oxan-2-yl]amino}-8,16-diazatricyclo[13.3.1.0^2,7]nonadeca-1(19),2,4,6,15,17-hexaen-9-one], the Ki in assay [1] came to 11.6 nM; in assay [2] it was 15.2 nM.
For the compound `C[C@@H]1CCC[C@H](N2CCC(c3c(F)ccc(Cl)c3F)=CC2=O)c2cc(ccn2)-c2ccc(NC3O[C@H](CO)[C@@H](O)[C@H](O)[C@H]3O)cc2NC1=O` (stereo partly drawn) [Example 126, (10R,14S)-14-[4-(3-chloro-2,6-difluorophenyl)-6-oxo-1,2,3,6-tetrahydropyridin-1-yl]-10-methyl-5-{[(3R,4S,5S,6R)-3,4,5-trihydroxy-6-(hydroxymethyl)oxan-2-yl]amino}-8,16-diazatricyclo[13.3.1.0^2,7]nonadeca-1(19),2,4,6,15,17-hexaen-9-one], the inhibitory constant (Ki) in assay [1] worked out at 37.6 nM; in assay [2], 16.1 nM.
For `C[C@@H]1CCC[C@H](N2CCC(c3c(F)ccc(Cl)c3F)=CC2=O)c2cc(ccn2)-c2ccc(NC3O[C@H](C(=O)O)[C@@H](O)[C@H](O)[C@H]3O)cc2NC1=O` (stereo partly drawn) [Example 128, (2S,3S,4S,5R)-6-{[(10R,14S)-14-[4-(3-chloro-2,6-difluorophenyl)-6-oxo-1,2,3,6-tetrahydropyridin-1-yl]-10-methyl-9-oxo-8,16-diazatricyclo[13.3.1.0^2,7]nonadeca-1(19),2,4,6,15,17-hexaen-5-yl]amino}-3,4,5-trihydroxyoxane-2-carboxylic acid], in that order: 25.5 nM and 10.3 nM.
For the compound `CO[C@H]1[C@H](O)[C@@H](CO)OC(Nc2ccc3c(c2)NC(=O)[C@H](C)CCC[C@H](N2CCC(c4c(F)ccc(Cl)c4F)=CC2=O)c2cc-3ccn2)[C@@H]1O` (stereo partly drawn) [Example 129, (10R,14S)-14-[4-(3-chloro-2,6-difluorophenyl)-6-oxo-1,2,3,6-tetrahydropyridin-1-yl]-5-{[(3R,4S,5R,6R)-3,5-dihydroxy-6-(hydroxymethyl)-4-methoxyoxan-2-yl]amino}-10-methyl-8,16-diazatricyclo[13.3.1.0^2,7]nonadeca-1(19),2,4,6,15,17-hexaen-9-one], the values for the Ki in assay [1] and in assay [2] were 21.7 nM and 8.29 nM, respectively.
For the compound `CC(=O)N[C@@H]1C(Nc2ccc3c(c2)NC(=O)[C@H](C)CCC[C@H](N2CCC(c4c(F)ccc(Cl)c4F)=CC2=O)c2cc-3ccn2)O[C@H](CO)[C@@H](O)[C@@H]1O` (stereo partly drawn) [Example 130, N-[(3S,4R,5S,6R)-2-{[(10R,14S)-14-[4-(3-chloro-2,6-difluorophenyl)-6-oxo-1,2,3,6-tetrahydropyridin-1-yl]-10-methyl-9-oxo-8,16-diazatricyclo[13.3.1.0^2,7]nonadeca-1(19),2,4,6,15,17-hexaen-5-yl]amino}-4,5-dihydroxy-6-(hydroxymethyl)oxan-3-yl]acetamide], the Ki in assay [1] came to 26.5 nM; in assay [2], 8.51 nM.
Regarding `C[C@@H]1CCC[C@H](N2CCC(c3c(F)ccc(Cl)c3F)=CC2=O)c2cc(ccn2)-c2ccc(NC3O[C@@H](CO)[C@H](O)[C@@H](O)[C@@H]3O)cc2NC1=O` (stereo partly drawn) [Example 131], the Ki in assay [1] is 20.8 nM; in assay [2] it was 7.22 nM.
For `C[C@@H]1CCC[C@H](N2CCC(c3c(F)ccc(Cl)c3F)=CC2=O)c2cc(ccn2)-c2ccc(NC3O[C@H](CO)[C@@H](O[C@H]4O[C@H](CO)[C@@H](O[C@H]5O[C@H](CO)[C@@H](O)[C@H](O)[C@H]5O)[C@H](O)[C@H]4O)[C@H](O)[C@H]3O)cc2NC1=O` (stereo partly drawn) [Example 133, (10R,14S)-14-[4-(3-chloro-2,6-difluorophenyl)-6-oxo-1,2,3,6-tetrahydropyridin-1-yl]-5-{[(3R,4R,5S,6R)-5-{[(2R,3R,4R,5S,6R)-3,4-dihydroxy-6-(hydroxymethyl)-5-{[(2R,3R,4S,5S,6R)-3,4,5-trihydroxy-6-(hydroxymethyl)oxan-2-yl]oxy}oxan-2-yl]oxy}-3,4-dihydroxy-6-(hydroxymethyl)oxan-2-yl]amino}-10-methyl-8,16-diazatricyclo[13.3.1.0^2,7]nonadeca-1(19),2,4,6,15,17-hexaen-9-one], in that order: 12.6 nM and 4.77 nM.
Regarding `COC(=O)Nc1ccc2c(c1)NC(=O)[C@H](C)CCC[C@H](N1CCC(c3c(F)ccc(Cl)c3F)=CC1=O)c1nc-2c(Cl)[nH]1` [Example 135, Methyl N-[(10R,14S)-17-chloro-14-[4-(3-chloro-2,6-difluorophenyl)-6-oxo-1,2,3,6-tetrahydropyridin-1-yl]-10-methyl-9-oxo-8,16,18-triazatricyclo[13.2.1.0^2,7]octadeca-1(17),2,4,6,15(18)-pentaen-5-yl]carbamate, TFA salt], the Ki in assay [1] worked out at 0.56 nM; in assay [2], 0.05 nM.
On to `COC(=O)Nc1ccc2c(c1)NC(=O)[C@H](C)C(=O)CC[C@H](N1CCC(c3c(F)ccc(Cl)c3F)=CC1=O)c1cc-2ccn1` [Example 136, Methyl N-[(10R,14S)-14-[4-(3-chloro-2,6-difluorophenyl)-6-oxo-1,2,3,6-tetrahydropyridin-1-yl]-10-methyl-9,11-dioxo-8,16-diazatricyclo[13.3.1.0^2,7]nonadeca-1(19),2(7),3,5,15,17-hexaen-5-yl]carbamate], for which the Ki was 118 nM in assay [1] and 45.3 nM in assay [2].
For `C[C@@H]1CCC[C@H](N2CCC(c3c(F)ccc(Cl)c3F)=CC2=O)c2cc(ccn2)-c2cc(Br)ccc2NC1=O` [Example 137, (10R,14S)-4-bromo-14-[4-(3-chloro-2,6-difluorophenyl)-6-oxo-1,2,3,6-tetrahydropyridin-1-yl]-10-methyl-8,16-diazatricyclo[13.3.1.0^2,7]nonadeca-1(19),2(7),3,5,15,17-hexaen-9-one], in that order: 91.3 nM and 69.6 nM.
For `C[C@@H]1CCC[C@H](N2CCC(c3c(F)ccc(Cl)c3F)=CC2=O)c2cc(ccn2)-c2cc(C#N)ccc2NC1=O` [Example 138, (10R,14S)-14-[4-(3-chloro-2,6-difluorophenyl)-6-oxo-1,2,3,6-tetrahydropyridin-1-yl]-10-methyl-9-oxo-8,16-diazatricyclo[13.3.1.0^2,7]nonadeca-1(19),2(7),3,5,15,17-hexaene-4-carbonitrile], in that order: 31.7 nM and 36.2 nM.
As to `C[C@@H]1CCC[C@H](N2CCC(c3c(F)ccc(C#N)c3F)=CC2=O)c2cc(ccn2)-c2cc(C#N)ccc2NC1=O` [Example 139, (10R,14S)-14-[4-(3-cyano-2,6-difluorophenyl)-6-oxo-1,2,3,6-tetrahydropyridin-1-yl]-10-methyl-9-oxo-8,16-diazatricyclo[13.3.1.0^2,7]nonadeca-1(19),2(7),3,5,15,17-hexaene-4-carbonitrile], the results for the Ki in assay [1] and in assay [2] were 6050 nM and over 408 nM, respectively.
In the case of `Cc1ccc2c(c1)-c1ccnc(c1)[C@@H](N1CCC(c3c(F)ccc(Cl)c3F)=CC1=O)CCC[C@@H](C)C(=O)N2` [Example 141, (10R,14S)-14-[4-(3-chloro-2,6-difluorophenyl)-6-oxo-1,2,3,6-tetrahydropyridin-1-yl]-4,10-dimethyl-8,16-diazatricyclo[13.3.1.0^2,7]nonadeca-1(19),2(7),3,5,15,17-hexaen-9-one], the values for the Ki in assay [1] and in assay [2] were 123 nM and 98.9 nM, respectively.
For `C[C@@H]1CCC[C@H](N2CCC(c3c(F)ccc(Cl)c3F)=CC2=O)c2cc(ccn2)-c2cc(F)c(N)cc2NC1=O` [Example 143, (10R,14S)-5-amino-14-[4-(3-chloro-2,6-difluorophenyl)-6-oxo-1,2,3,6-tetrahydropyridin-1-yl]-4-fluoro-10-methyl-8,16-diazatricyclo[13.3.1.0^2,7]nonadeca-1(19),2(7),3,5,15,17-hexaen-9-one], in that order: 3.38 nM and 1.31 nM.
Take `COC(=O)c1ccc2c(c1)-c1ccnc(c1)[C@@H](N1CCC(c3c(F)ccc(Cl)c3F)=CC1=O)CCC[C@@H](C)C(=O)N2` [Example 144, Methyl (10R,14S)-14-[4-(3-chloro-2,6-difluorophenyl)-6-oxo-1,2,3,6-tetrahydropyridin-1-yl]-10-methyl-9-oxo-8,16-diazatricyclo[13.3.1.0^2,7]nonadeca-1(19),2(7),3,5,15,17-hexaene-4-carboxylate]: the Ki turned out to be 108 nM in assay [1] and 186 nM in assay [2].
In the case of `C[C@@H]1CCC[C@H](N2CCC(c3c(Br)ccc(Cl)c3F)=CC2=O)c2cc(ccn2)-c2cc(F)ccc2NC1=O` [Example 147, (10R,14S)-14-[4-(6-bromo-3-chloro-2-fluorophenyl)-6-oxo-1,2,3,6-tetrahydropyridin-1-yl]-4-fluoro-10-methyl-8,16-diazatricyclo[13.3.1.0^2,7]nonadeca-1(19),2(7),3,5,15,17-hexaen-9-one], the Ki in assay [1] is 7.51 nM; in assay [2] it was 3.59 nM.
`C[C@@H]1CCC[C@H](N2CCC(c3c(F)ccc(Cl)c3F)=CC2=O)c2cc(ccn2)-c2cc(CO)ccc2NC1=O` [Example 148, (10R,14S)-14-[4-(3-chloro-2,6-difluorophenyl)-6-oxo-1,2,3,6-tetrahydropyridin-1-yl]-4-(hydroxymethyl)-10-methyl-8,16-diazatricyclo[13.3.1.0^2,7]nonadeca-1(19),2(7),3,5,15,17-hexaen-9-one]: the figures for the Ki in assay [1] and in assay [2] were 118 nM and 90.1 nM, respectively.
For `C[C@@H]1CCC[C@H](N2CCC(c3c(F)ccc(Cl)c3F)=CC2=O)c2cc(ccn2)-c2ccc(CO)cc2NC1=O` [Example 149, (10R,14S)-14-[4-(3-chloro-2,6-difluorophenyl)-6-oxo-1,2,3,6-tetrahydropyridin-1-yl]-5-(hydroxymethyl)-10-methyl-8,16-diazatricyclo[13.3.1.0^2,7]nonadeca-1(19),2(7),3,5,15,17-hexaen-9-one], in that order: 22.6 nM and 17.5 nM.

A word on the Ki: it is the equilibrium dissociation constant of an inhibitor or competing ligand from its target.
